Publication PMC8162404, “Proteomimetic surface fragments distinguish targets by function” (Chemical Science, 2020)

Legend:
Assay in all cases: Pull-down assay with immobilized protein and LSM libraries
RecQ-WH = target: T1, RecQ-WH (Escherichia coli, UniProt P15043); design: species or system E. coli; conditions: H14 library; 1:1 binding assumed; read-out: Surface mapping KD (apparent)
T1 construct: coding for residues 408– 523 of E. coli RecQ; made in house; host or cells: E. coli BL21(DE3)
Description: Pull-down assays with immobilized test proteins and foldameric LSM libraries were carried out. Proteins were equilibrated with LSM probes, and equilibrium bound fractions (FB) were determined from the unbound fractions measured by HPLC-MS methods. Hits were corrected with background binding of the resin. The protocol allowed all binding events to equilibrate irrespective of affinity, specificity, and binding kinetics. This was essential to judge overall druggability and promiscuity. Importantly, the concentration of protein and the total concentration of foldameric LSMs were equimolar, which minimized competition between the probes. This experimental setup approximated independent binding of individual library members. Results were visualized as heat maps of dissociation constants (Fig. 3).
Pull-down assay and data analysis
Pull-down assay. LSM sublibraries were screened separately as previously described.(2) Experiments were performed in the following buffers: (i) 20 mM pH 7.4 HEPES, 150 mM NaCl, 5 mM CaCl2 for CaM; (ii) 50 mM pH 7.4 HEPES, 150 mM NaCl, 1 mM TCEP, 1 mM CaCl2 for S100 proteins; (iii) 20 mM pH 7.4 HEPES, 150 mM NaCl, 1 mM TCEP for Gal-1 and (iv) 20 mM pH 7.4 HEPES, 150 mM NaCl for RecQ-WH. Assays were performed in paper filter spin cups (Thermo Scientific) with sample volumes of 100 µl. Hexahistidine-tagged proteins were immobilized on previously washed Co-NTA resin (TALON, Takara Bio USA, Inc., Mountain View, CA) in 64 µM final concentration. LSM sublibrary was added, in which each of the 64 library members were used at a concentration of 1 µM. Samples were incubated at room temperature for 30 min with shaking at 100 rpm. Then, samples were centrifuged at 1000 rpm for 2 min and washed with 100 µl pull-down buffer to remove unbound compounds.
The control experiments were performed using the same compounds and the resin but without the immobilized protein. In case of competitive assays, competitor peptides were added to LSM sublibrary samples in 200 µM final concentration. In the case of Gal-1, lactose (competitor) was used in a concentration of 10 mM. Experiments were performed at least twice. Mean […]
LC-MS methods and parameters. HPLC/ESI-MS analysis was used to characterize the samples from the pull-down assay. LC-MS analysis was performed with a Thermo Scientific Dionex UltiMate 3000 HPLC system interfaced to an LTQ ion trap mass spectrometer (Thermo Electron Corp., San Jose, CA, USA). Samples were injected onto an Aeris Widepore XB-C18 (250 x 4.6 mm) analytical HPLC column using gradient elution 5-80 % solution B during 25 minutes. For pull-down samples, eluent composition was 0.1% acetic acid in distilled water (Solution A) and 0.1% acetic acid in acetonitrile (solution B). Mass spectra were acquired in full scan mode from 200 to 2000 m/z range. For overlapping peaks, selective reaction monitoring (SRM) was […]
MS data analysis. Thermo Xcalibur 2.2 software was used for peak identification and integration. The majority of the foldameric fragments could be resolved independently via HPLC-MS/MS measurements based on molecular weight, MS fragmentation pattern and retention time. Peaks of some foldamers with β3-hIle or β3-hLeu in position R2 could not be resolved, these were integrated and averaged. In the processing method, each sample component was associated to a chromatographic peak based on previously identified mass (m/z) and retention time (ref (2) and Table S7-10). Using ICIS peak detection algorithm, the general detection and integration criteria were: smoothing points: 5, baseline window: 80, area noise factor: 5, peak noise factor: 10. Using these processing setups, all raw data files were reprocessed together and analyzed. Errors in peak identification during the automatic processing were corrected manually.
Calculation of the discussed parameters
1. Bound fractions (FB.) were calculated from the HPLC-MS intensity loss of the LSM probes compared to the control where no protein was immobilized to the resin: […]

CaM = target: T2, CaM (Bos taurus, UniProt P62157); assay type: binding, bovine; conditions: H14 library; 1:2 stoichiometry assumed; read-out: Surface mapping KD (apparent)
T2 construct: made in house; host or cells: E. coli BL21 (DE3)
Summary of the method: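 CaM buffer was 20 mM HEPES pH 7.4, 150 mM NaCl, 5 mM CaCl2. LSM sublibrary members ([…]) incubated 30 min, RT, with equimolar His-tagged protein on Co-NTA resin. HPLC-MS measured unbound probes; bound fraction relative to resin-only background gave dissociation constants.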

S100B = target: T3, S100B (Homo sapiens, UniProt P04271); assay type: binding; conditions: H14 library; 1:1 binding assumed; read-out: Surface mapping KD (apparent)
T3 construct: made in house; host or cells: Escherichia coli BL21(DE3)
T3 sequence (P04271 1-92): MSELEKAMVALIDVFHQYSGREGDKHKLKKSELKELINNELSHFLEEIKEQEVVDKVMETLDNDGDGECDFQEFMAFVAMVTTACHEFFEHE
Summary of the method: (§1)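 Buffers were HEPES pH 7.4 with 150 mM NaCl, plus 1 mM TCEP and 1 mM CaCl2 (50 mM HEPES) for S100A4 and S100B, 1 mM TCEP for Gal-1, and no additive for RecQ-WH. Immobilized protein at 64 µM was equilibrated 30 min with the LSM sublibrary, and unbound probes were measured by LC-MS.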

S100A4 = target: T4, S100A4 (Homo sapiens, UniProt P26447); assay type: binding; conditions: H14 library; 1:1 binding assumed; read-out: Surface mapping KD (apparent)
T4 construct: made in house; host or cells: Escherichia coli BL21(DE3)
T4 sequence (P26447 whole entry): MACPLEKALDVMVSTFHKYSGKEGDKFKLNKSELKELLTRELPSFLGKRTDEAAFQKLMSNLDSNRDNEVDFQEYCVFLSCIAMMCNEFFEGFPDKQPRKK
Summary of the method: as §1

T1 sequence (P15043 408-523): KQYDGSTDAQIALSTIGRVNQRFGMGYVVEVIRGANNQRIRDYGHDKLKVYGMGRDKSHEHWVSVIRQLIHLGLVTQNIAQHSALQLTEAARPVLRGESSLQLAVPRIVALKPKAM

CC(C)C[C@@H](CC(=O)N[C@H]1CCCC[C@@H]1C(N)=O)NC(=O)[C@H]1CCCC[C@@H]1NC(=O)[C@H]1CCCC[C@@H]1NC(=O)C[C@H](CCC(=O)O)NC(=O)[C@H]1CCCC[C@@H]1N [H14 EL]
Kd (RecQ-WH): 444 µM

NC(=O)[C@H]1CCCC[C@@H]1NC(=O)C[C@H](CC(=O)O)NC(=O)[C@H]1CCCC[C@@H]1NC(=O)[C@H]1CCCC[C@@H]1NC(=O)C[C@H](Cc1ccccc1)NC(=O)[C@H]1CCCC[C@@H]1N [H14 FD]
Kd (CaM): 489 µM
Kd (RecQ-WH): 193 µM

NC(=O)[C@H]1CCCC[C@@H]1NC(=O)C[C@H](CCC(=O)O)NC(=O)[C@H]1CCCC[C@@H]1NC(=O)[C@H]1CCCC[C@@H]1NC(=O)C[C@H](Cc1ccccc1)NC(=O)[C@H]1CCCC[C@@H]1N [H14 FE]
Kd (CaM): 475 µM
Kd (RecQ-WH): 328 µM

NCCCC[C@@H](CC(=O)N[C@H]1CCCC[C@@H]1C(=O)N[C@H]1CCCC[C@@H]1C(=O)N[C@H](CC(=O)N[C@H]1CCCC[C@@H]1C(N)=O)Cc1ccc(O)cc1)NC(=O)[C@H]1CCCC[C@@H]1N [H14 KY]
Kd (CaM): 36 µM
Kd (S100B): 63 µM
Kd (RecQ-WH): 407 µM

N=C(N)NCCC[C@@H](CC(=O)N[C@H]1CCCC[C@@H]1C(=O)N[C@H]1CCCC[C@@H]1C(=O)N[C@@H](CC(=O)O)CC(=O)N[C@H]1CCCC[C@@H]1C(N)=O)NC(=O)[C@H]1CCCC[C@@H]1N [H14 RD]
Kd (RecQ-WH): 427 µM

CC[C@H](C)[C@@H](CC(=O)N[C@H]1CCCC[C@@H]1C(N)=O)NC(=O)[C@H]1CCCC[C@@H]1NC(=O)[C@H]1CCCC[C@@H]1NC(=O)C[C@H](CCCNC(=N)N)NC(=O)[C@H]1CCCC[C@@H]1N [H14 RI]
Kd (CaM): 10 µM
Kd (S100A4): 51 µM
Kd (S100B): 31 µM
Kd (RecQ-WH): 237 µM

CC(C)C[C@@H](CC(=O)N[C@H]1CCCC[C@@H]1C(N)=O)NC(=O)[C@H]1CCCC[C@@H]1NC(=O)[C@H]1CCCC[C@@H]1NC(=O)C[C@H](CCCNC(=N)N)NC(=O)[C@H]1CCCC[C@@H]1N [H14 RL]
Kd (CaM): 10 µM
Kd (S100A4): 51 µM
Kd (S100B): 31 µM
Kd (RecQ-WH): 237 µM

N=C(N)NCCC[C@@H](CC(=O)N[C@H]1CCCC[C@@H]1C(=O)N[C@H]1CCCC[C@@H]1C(=O)N[C@@H](CC(N)=O)CC(=O)N[C@H]1CCCC[C@@H]1C(N)=O)NC(=O)[C@H]1CCCC[C@@H]1N [H14 RN]
Kd (CaM): 185 µM
Kd (S100B): 212 µM
Kd (RecQ-WH): 439 µM

N=C(N)NCCC[C@@H](CC(=O)N[C@H]1CCCC[C@@H]1C(=O)N[C@H]1CCCC[C@@H]1C(=O)N[C@@H](CO)CC(=O)N[C@H]1CCCC[C@@H]1C(N)=O)NC(=O)[C@H]1CCCC[C@@H]1N [H14 RS]
Kd (CaM): 155 µM
Kd (S100B): 413 µM
Kd (RecQ-WH): 403 µM

NC(=O)[C@H]1CCCC[C@@H]1NC(=O)C[C@H](CCC(=O)O)NC(=O)[C@H]1CCCC[C@@H]1NC(=O)[C@H]1CCCC[C@@H]1NC(=O)C[C@H](Cc1c[nH]c2ccccc12)NC(=O)[C@H]1CCCC[C@@H]1N [H14 WE]
Kd (CaM): 191 µM
Kd (S100A4): 428 µM
Kd (RecQ-WH): 137 µM
